According to US8293774B2, “Optically active (R)-aryloxypropionic acid amides and herbicidal composition comprising same” (Kyung Nong Corporation, priority 2007, dated 2012):

Key:
Assay in all cases: Weed control test, foliage treatment (Test Example 1, Table 7)
[1] = system: GLXMA (Glycine max(L.) MERR, soy bean); conditions: in vivo
Experimental: (§1) Seeds of rice, wheat, soy bean, barley, corn, common sorgum, barnyard grass, large crabgrass, creek grass, green foxtail and fall panicum were placed in sandy loam in 600 cm^2 pots and covered with soil. After keeping the pots in a greenhouse at 20 to 30° C. allowing growth of the plants to the 3-leaf stage of the barnyard grass, 2,000 l/ha of an emulsion obtained by diluting with water a mixture of 1 part by weight of a test compound, 5 parts by weight of acetone and 1 part by weight of an emulsifying agent (Tween 80, Junsei) was applied to the surface of the foliage of the plants. The plant damage at 10 days and 20 days after the foliage treatment was visually evaluated from the level of 1 to 100% by comparison with the untreated control: […]

[2] = system: HORVU (Hordeum vulgare L., barley); conditions: in vivo
Experimental: as §1

[3] = system: ORYSA (Oryza sativa cv. Dongjin, rice); conditions: in vivo
Experimental: as §1

[4] = system: TRZAW (Tritium aestivum L., wheat); conditions: in vivo
Experimental: as §1

[5] = system: ARTHIS (Arthraxon hispidus (Thunb.) Makino, creek grass); format: in vivo; conditions: Arthraxon hispidus, foliar, read-out: Plant damage (herbicidal activity), visually evaluated, ARTHIS; for pest or weed control at 25 g/ha: 0.025 kg/ha; for pest or weed control at 100 g/ha: 0.1 kg/ha; for pest or weed control at 200 g/ha: 0.2 kg/ha
Experimental: as §1

[6] = system: DIGSA (Digitaria Sanguinalis (L.) SCOP, large crabgrass); format: in vivo; conditions: Digitaria sanguinalis, foliar, read-out: Plant damage (herbicidal activity), visually evaluated, DIGSA; for pest or weed control at 25 g/ha: 0.025 kg/ha; for pest or weed control at 100 g/ha: 0.1 kg/ha; for pest or weed control at 200 g/ha: 0.2 kg/ha
Experimental: as §1

[7] = system: ECHOG (Echinoch crus-galli Beauv. var. caudata Kitagawa, barnyard grass); format: in vivo; conditions: Echinochloa crus-galli, foliar, 3-leaf stage, read-out: Plant damage (herbicidal activity), visually evaluated, ECHOG; for pest or weed control at 25 g/ha: 0.025 kg/ha; for pest or weed control at 100 g/ha: 0.1 kg/ha; for pest or weed control at 200 g/ha: 0.2 kg/ha
Experimental: as §1

[8] = system: PANDI (Panium dichotomiflorum Michx, fall panicum); format: in vivo; conditions: Panicum dichotomiflorum, foliar, read-out: Plant damage (herbicidal activity), visually evaluated, PANDI; for pest or weed control at 25 g/ha: 0.025 kg/ha; for pest or weed control at 100 g/ha: 0.1 kg/ha; for pest or weed control at 200 g/ha: 0.2 kg/ha
Experimental: as §1

[9] = system: SETVIR (Setaria viridis (L.) Beauv, green foxtail); format: in vivo; conditions: Setaria viridis, foliar, read-out: Plant damage (herbicidal activity), visually evaluated, SETVIR; for pest or weed control at 25 g/ha: 0.025 kg/ha; for pest or weed control at 100 g/ha: 0.1 kg/ha; for pest or weed control at 200 g/ha: 0.2 kg/ha
Experimental: as §1

[10] = system: SORBI (Andropogon sorghum, common sorgum); format: in vivo; conditions: Sorghum bicolor, foliar, read-out: Plant damage (herbicidal activity), visually evaluated, SORBI; for pest or weed control at 25 g/ha: 0.025 kg/ha; for pest or weed control at 100 g/ha: 0.1 kg/ha; for pest or weed control at 200 g/ha: 0.2 kg/ha
Experimental: as §1

[11] = system: ZEAMX (Zea mays L., corn); format: in vivo; conditions: Zea mays, foliar, read-out: Plant damage (herbicidal activity), visually evaluated, ZEAMX; for plant injury at 25 g/ha: 0.025 kg/ha; for plant injury at 100 g/ha: 0.1 kg/ha; for plant injury at 200 g/ha: 0.2 kg/ha
Experimental: as §1

Row | Structure (SMILES) | Plant damage (herbicidal activity), visually evaluated, GLXMA [1] | Plant damage (herbicidal activity), visually evaluated, HORVU [2] | Plant damage (herbicidal activity), visually evaluated, ORYSA [3] | Plant damage (herbicidal activity), visually evaluated, TRZAW [4] | pest or weed control at 25 g/ha [5] | pest or weed control at 100 g/ha [5] | pest or weed control at 200 g/ha [5] | pest or weed control at 25 g/ha [6] | pest or weed control at 100 g/ha [6] | pest or weed control at 200 g/ha [6] | pest or weed control at 25 g/ha [7] | pest or weed control at 100 g/ha [7] | pest or weed control at 200 g/ha [7] | pest or weed control at 25 g/ha [8] | pest or weed control at 100 g/ha [8] | pest or weed control at 200 g/ha [8] | pest or weed control at 25 g/ha [9] | pest or weed control at 100 g/ha [9] | pest or weed control at 200 g/ha [9] | pest or weed control at 25 g/ha [10] | further results
1 | C[C@@H](Oc1ccc(Oc2ccc(C#N)cc2F)cc1)C(=O)Nc1nc2ccc(F)cc2s1 [Example 23, (R)-2-[4-(4-cyano-2-fluorophenoxy)phenoxy]propionic acid-N-(6-fluoro-2-benzothiazolyl)amide] | 0% | 0% | 0% | 0% | 0% | 0% | 10% | 0% | 20% | 20% | 20% | 50% | 50% | 0% | 0% | 10% | 0% | 0% | 20% | 0% | pest or weed control at 100 g/ha [10]: 20%; pest or weed control at 200 g/ha [10]: 20%; plant injury at 25 g/ha [11]: 10%; plant injury at 100 g/ha [11]: 90%; plant injury at 200 g/ha [11]: 90%
2 | Cc1ccc2nc(N(C)C(=O)[C@@H](C)Oc3ccc(Oc4ccc(C#N)cc4F)cc3)sc2c1 [Example 26, (R)-2-[4-(4-cyano-2-fluorophenoxy)phenoxy]propionic acid-N-(6-methyl-2-benzothiazolyl)-N-methyl amide] | 0% | 0% | 0% | 0% | 0% | 0% | 0% | 0% | 0% | 0% | 0% | 0% | 0% | 0% | 0% | 0% | 0% | 0% | 0% | 10% | pest or weed control at 100 g/ha [10]: 20%; pest or weed control at 200 g/ha [10]: 35%; plant injury at 25 g/ha [11]: 10%; plant injury at 100 g/ha [11]: 10%; plant injury at 200 g/ha [11]: 30%
3 | Cc1cc(NC(=O)[C@@H](C)Oc2ccc(Oc3ccc(C#N)cc3F)cc2)n(C)n1 [Example 29, (R)-2-[4-(4-cyano-2-fluorophenoxy)phenoxy]propionic acid-N-(1,3-dimethyl-5-pyrazolyl)amide] | 0% | 0% | 0% | 0% | 0% | 0% | 10% | 0% | 20% | 90% | 20% | 70% | 90% | 0% | 0% | 10% | 0% | 0% | 20% | 0% | pest or weed control at 100 g/ha [10]: 20%; pest or weed control at 200 g/ha [10]: 50%; plant injury at 25 g/ha [11]: 0%; plant injury at 100 g/ha [11]: 5%; plant injury at 200 g/ha [11]: 30%
4 | C[C@@H](Oc1ccc(Oc2ccc(C#N)cc2F)cc1)C(=O)Nc1nccs1 [Example 31, (R)-2-[4-(4-cyano-2-fluorophenoxy)phenoxy]propionic acid-N-(2-thiazolyl)amide] | 0% | 0% | 0% | 0% | 0% | 70% | 70% | 0% | 20% | 70% | 0% | 50% | 90% | 0% | 20% | 20% | 0% | 70% | 70% | 0% | pest or weed control at 100 g/ha [10]: 20%; pest or weed control at 200 g/ha [10]: 50%; plant injury at 25 g/ha [11]: 20%; plant injury at 100 g/ha [11]: 90%; plant injury at 200 g/ha [11]: 90%
